Results on eleven molecules are retold here after patent US20070274928A1, “Novel Cyclic Oxygenated Compounds Having Cooling, Fragrance, and Flavor Properties, and Uses Thereof” (priority 2003, published 2007).

“Also recorded” adds a separate entry of the source.

What all share (assay type): in vivo, human
Assay [1] can be described thus: Organoleptic evaluation of cooling sensory effect of purified compounds. The note with it: pure / purified compound.
In another assay the test system is tongue. Briefly: Application of 5% solution to the tongue. To be noted: 0.1 ml of a 5% solution applied to the tongue. The method, then: 3.66 grams of compound (5), 10 ml of water, 5 ml of ethanol, and 1.70 g of sodium bicarbonate were stirred together at room temperature until evolution of carbon dioxide ceased (approximately 30 min). The whole was evaporated under reduced pressure at 85° C. until a constant weight was reached. The resulting transparent solid (4.4 g) was sodium ketocampholenate monohydrate.

Another assay deals with nasal cavity. Briefly: Olfactory evaluation of neat sample, cooling sensory effect on smelling. The method, then: 10 ml of 20% NaOH in water were added to the 1 ml of ethanolic solution of 120 mg of the oil resulting from the Grignard reaction, and the whole was stirred at room temperature for 1 hour.
An analytically pure sample of a lactone having formula (129) was obtained by subjecting 30 mg of the fraction 2A sample to column chromatography on silica gel using hexane:ethyl acetate 8:1 as an eluent.

For the next assay, the system named is mouth. Put plainly: Taste evaluation of aqueous solutions by mouth rinse (cooling sensory effect). To be noted: 5 ppm solution in purified water, 10 ml rinsed in mouth for 10 sec. On the procedure: A 5 ppm solution of 98% pure ketone (10) in purified water was prepared. 10 ml of the solution was tasted by rinsing it in the mouth for 10 sec.
A series of solutions of a mixture of compounds (7) and (8) (approximately 60:40 ratio) were prepared in purified water for subsequent evaluation of cooling sensory effects and taste properties at different concentrations. The solutions were tasted by taking 10 ml of each sample in the mouth, rinsing the mouth for 30 seconds, and discarding the solution by spitting. The cooling sensory effects were recorded as extreme (5), strong (4), moderate (3), weak (2), or none (1), and the ranks were noted over a period of time of 4 hours. Only one sample was tasted per day. All samples were kept in a refrigerator until the taste evaluation and were brought to room temperature before tasting.

For the molecule `CC1(C)CC2C(=O)CC(C)(O1)C2(C)C` (stereo not drawn) [(147)], the cooling sensory effect result in assay [1] is given as “no significant cooling sensory effect”.

Consider `CC1CCC(C(C)CO)C(=O)C1` (stereo not drawn) [(52)], for which, in assay [1], the cooling sensory effect entry is on record as “potent cooling properties”.

`CC1=C[C@]2(C)OC(=O)CC2C1(C)C` (stereo partly drawn) [compound (6)]: in assay [1], the cooling sensory effect result is recorded as “lacks the cooling sensory effect”.

Regarding `CC1=CC2(C)OC(C)(C)CC2C1(C)C` (stereo not drawn) [compound (11)], the cooling sensory effect entry in assay [1] was “devoid of cooling sensory properties”.

As for `CC1CC2(O)OC(C)(C)CC2C1(C)C` (stereo not drawn) [compound (15)], the cooling sensory effect entry in assay [1] is given as “moderate to strong cooling sensory effect”.

In the case of sodium ketocampholenate monohydrate, in the assay on tongue, the “duration of tingling-tangy sensation” value is “about 10 min”.

Regarding `CC1=CC(=O)C(CC(C)(C)O)C1(C)C` (stereo not drawn) [compound (8)], the cooling sensory effect entry in assay [1] was “relatively weak cooling effect”.

Consider `CC1CC2(C)OC(=O)CC2C1(C)C` (stereo not drawn) [(129)], for which, in the assay on nasal cavity, the “cooling sensory effect upon smelling the sample” value is given as “did not exhibit any significant ability to impart the cooling sensation”.

With `CC1CC(=O)C(CC(C)(C)O)C1(C)C` (stereo not drawn) [compound (16)], the cooling sensory effect result in assay [1] is “weak cooling sensory effect”.

Regarding `CC(C)=CC1C(=O)C=C(C)C1(C)C` (stereo not drawn) [(10)], the cooling sensory effect result with mouth is “no discernible cooling sensory effect”; in assay [1] it was “completely devoid of a cooling sensory effect”.

Consider `CC1=CC2(O)OC(C)(C)CC2C1(C)C` (stereo not drawn) [compound (7)], for which the cooling sensory effect result in assay [1] is given as “powerful cooling effect; also recorded: very powerful cooling sensory effect”.
